According to patent US10233182B2, “Substituted spirocyclic inhibitors of autotaxin” (X-Rx, Inc., priority 2014, dated 2019):
Counter-ions that a name gives are not always drawn.

molecular target: Autotaxin (Homo sapiens (Human), UniProt Q13822); experiment: Autotaxin LPC Cascade Assay; assay type: biochemical; details: Autotaxin 5 nM, LPC 100 μM, choline oxidase/HRP/Ampliflu Red fluorescence read-out, 2% DMSO, RT; read-out: IC50 ATX Activity
Protocol: Autotaxin LPC Cascade Assay:
HA130 and Test Compounds:
Prepare a 1 mM stock of HA130 and a 3 mM stock of each compound in 100% DMSO. Perform a 1:3 serial dilution in DMSO (transfer 5 l of compound to 10 l of DMSO). Add 240 l of buffer to generate a top working concentration of 40 µM (HA130) and 120 µM (test compound) in 4% DMSO.
Ampliflu Red—Prepare a stock of 5 mM from 100 mM in 100% DMSO. Further dilute to a working concentration of 400 μM in buffer (8% DMSO).
Together with compound this yields a 2% DMSO final concentration.
Choline Oxidase/HRP—0.8 U/mL CO and 8 U/mL HRP.
Incubate for 10 mins at RT. Add 5 µl of LPC and incubate for 1 hr on the plate shaker. Prepare the CO/HRP and AR immediately prior to use. Add 2.5 l of CO/HRP and follow with 2.5 l AR. Note order of addition, CO/HRP mix before AR. Read fluorescence intensity (ex/em: 530/590 nm) kinetically for 30 min at RT on the Tecan M1000.

Compound	IC50
CC(C)[C@@H](NC(=O)c1cc(C(F)(F)F)ccc1F)C(=O)N1CCC2(CC1)C(=O)N(C)C(=O)N2c1ccccn1 [Example 188, (R)-2-Fluoro-N-(3-methyl-1-(3-methyl-2,4-dioxo-1-(pyridin-2-yl)-1,3,8-triaza-spiro[4.5]decan-8-yl)-1-oxobutan-2-yl)-5-(trifluoromethyl)benzamide]	500 to 1000 nM
CC(C)[C@@H](NC(=O)c1ccc(Cl)c(Cl)c1)C(=O)N1CCC2(CC1)C(=O)N(C)C(=O)N2c1ccccc1 [Example 35, (R)-3,4-Dichloro-N-(3-methyl-1-(3-methyl-2,4-dioxo-1-phenyl-1,3,8-triazaspiro[4.5]decan-8-yl)-1-oxobutan-2-yl)benzamide]	≥ 1000 nM
Cc1nc2cc(CN3C(=O)N(C)C(=O)C34CCN(C(=O)[C@H](NC(=O)c3cc(C(F)(F)F)ccc3F)C(C)C)CC4)ccn2n1 [Example 114, (R)-2-Fluoro-N-(3-methyl-1-(3-methyl-1-((2-methyl-[1,2,4]triazolo[1,5-a]pyridin-7-yl)methyl)-2,4-dioxo-1,3,8-triazaspiro[4.5]decan-8-yl)-1-oxobutan-2-yl)-5-(trifluoromethyl)benzamide]	≥ 1000 nM
COc1ccc(N2C(=O)N(C)C(=O)C23CCN(C(=O)[C@H](NC(=O)c2cc(C(F)(F)F)ccc2F)C(C)C)CC3)cc1F [Example 6, (R)-2-Fluoro-N-(1-(1-(3-fluoro-4-methoxyphenyl)-3-methyl-2,4-dioxo-1,3,8-triazaspiro[4.5]decan-8-yl)-3-methyl-1-oxobutan-2-yl)-5-(trifluoromethyl)benzamide]	< 500 nM
CC(C)[C@@H](NC(=O)c1cc(C(F)(F)F)ccc1F)C(=O)N1CCC2(CC1)C(=O)N(C)C(=O)N2Cc1ccc(=O)n(C)c1 [Example 120, (R)-2-Fluoro-N-(3-methyl-1-(3-methyl-1-((1-methyl-6-oxo-1,6-dihydropyridin-3-yl)methyl)-2,4-dioxo-1,3,8-triazaspiro[4.5]decan-8-yl)-1-oxobutan-2-yl)-5-(trifluoromethyl)benzamide]	500 to 1000 nM
CC(C)[C@@H](NC(=O)c1cc(OC(F)F)ccc1F)C(=O)N1CCC2(CC1)C(=O)N(C)CN2c1ccc(C(=O)O)cc1 [Example 165, (R)-4-(8-(2-(5-(Difluoromethoxy)-2-fluorobenzamido)-3-methylbutanoyl)-3-methyl-4-oxo-1,3,8-triazaspiro[4.5]decan-1-yl)benzoic Acid]	< 500 nM
Cc1cccc(C(=O)N[C@H](C(=O)N2CCC3(CC2)C(=O)N(C)CN3c2ccccc2)C2CCOCC2)c1 [Example 130, (S)-3-Methyl-N-(2-(3-methyl-4-oxo-1-phenyl-1,3,8-triazaspiro[4.5]decan-8-yl)-2-oxo-1-(tetrahydro-2H-pyran-4-yl)ethyl)benzamide]	≥ 1000 nM
CC(C)[C@@H](NC(=O)c1cc(C(F)(F)F)ccc1F)C(=O)N1CCC2(CC1)C(=O)N(C)CN2c1ccc(C(N)=O)cc1 [Example 157, (R)—N-(1-(1-(4-Carbamoylphenyl)-3-methyl-4-oxo-1,3,8-triazaspiro[4.5]decan-8-yl)-3-methyl-1-oxobutan-2-yl)-2-fluoro-5-(trifluoromethyl)benzamide]	< 500 nM
COC(=O)Nc1ccc(N2C(=O)N(C)C(=O)C23CCN(C(=O)[C@H](NC(=O)c2cc(C(F)(F)F)ccc2F)C(C)C)CC3)cc1 [Example 127, (R)-Methyl-4-(8-(2-(2-fluoro-5-(trifluoromethyl)benzamido)-3-methylbutanoyl)-3-methyl-2,4-dioxo-1,3,8-triazaspiro[4.5]decan-1-yl)phenylcarbamate]	500 to 1000 nM
CC(C)[C@@H](NC(=O)c1cc(C(F)(F)F)ccc1F)C(=O)N1CCC2(CC1)C(=O)N(C)[C@@H](C)N2c1ccc(C(=O)O)cc1 [Example 213, 4-((S)-8-((R)-2-(2-Fluoro-5-(trifluoromethyl)benzamido)-3-methylbutanoyl)-2,3-dimethyl-4-oxo-1,3,8-triazaspiro[4.5]decan-1-yl)benzoic Acid]	< 500 nM
Cc1cccc(C(=O)N[C@@H](C(=O)N2CCC3(CC2)C(=O)N(C)CN3c2ccc(Cl)cc2)C(C)C)c1 [Example 193, (R)—N-(1-(1-(4-Chlorophenyl)-3-methyl-4-oxo-1,3,8-triazaspiro[4.5]decan-8-yl)-3-methyl-1-oxobutan-2-yl)-3-methylbenzamide]	< 500 nM
COc1ccc(N2C(=O)N(C)C(=O)C23CCN(C(=O)[C@H](NC(=O)c2cc(C(F)(F)F)ccc2F)C(C)C)CC3)cc1 [Example 51, (R)-2-Fluoro-N-(1-(1-(4-methoxyphenyl)-3-methyl-2,4-dioxo-1,3,8-triazaspiro[4.5]decan-8-yl)-3-methyl-1-oxobutan-2-yl)-5-(trifluoromethyl)benzamide]	< 500 nM
COc1ccc(F)c(C(=O)N[C@@H](C(=O)N2CCC3(CC2)C(=O)N(C)C(=O)N3c2ccc3[nH]ncc3c2)C(C)C)c1 [Example 63, (R)—N-(1-(1-(1H-Indazol-5-yl)-3-methyl-2,4-dioxo-1,3,8-triazaspiro[4.5]decan-8-yl)-3-methyl-1-oxobutan-2-yl)-2-fluoro-5-methoxybenzamide]	500 to 1000 nM
CC(C)[C@@H](NC(=O)c1cc(Cl)cc(C(F)(F)F)c1)C(=O)N1CCC2(CC1)C(=O)N(C)C(=O)N2c1ccc2[nH]ncc2c1 [Example 60, (R)—N-(1-(1-(1H-Indazol-5-yl)-3-methyl-2,4-dioxo-1,3,8-triazaspiro[4.5]decan-8-yl)-3-methyl-1-oxobutan-2-yl)-3-chloro-5-(trifluoromethyl)benzamide]	< 500 nM
CC(C)[C@@H](NC(=O)C12CC3CC(CC(C3)C1)C2)C(=O)N1CCC2(CC1)C(=O)N(C)C(=O)N2c1ccc2[nH]ncc2c1 [Example 67, (R)—N-(1-(1-(1H-Indazol-5-yl)-3-methyl-2,4-dioxo-1,3,8-triazaspiro[4.5]decan-8-yl)-3-methyl-1-oxobutan-2-yl)-1-admantanecarboxly amide]	≥ 1000 nM
CCc1cccc(C(=O)N[C@@H](C(=O)N2CCC3(CC2)C(=O)N(C)CN3c2ccccc2)[C@H](C)OC)c1 [Example 135, 3-Ethyl-N-((2R,3S)-3-methoxy-1-(3-methyl-4-oxo-1-phenyl-1,3,8-triazaspiro[4.5]decan-8-yl)-1-oxobutan-2-yl)benzamide]	< 500 nM
CC(C)[C@@H](NC(=O)c1cc(C(F)(F)F)ccc1F)C(=O)N1CCC2(CC1)C(=O)N(C)C(=O)N2c1ccc(OCC2COC2)cc1 [Example 83, (R)-2-Fluoro-N-(3-methyl-1-(3-methyl-1-(4-(oxetan-3-ylmethoxy)phenyl)-2,4-dioxo-1,3,8-triazaspiro[4.5]decan-8-yl)-1-oxobutan-2-yl)-5-(trifluoromethyl)benzamide]	< 500 nM
CC(C)[C@@H](NC(=O)c1cc(C(F)(F)F)ccc1F)C(=O)N1CCC2(CC1)C(=O)N(C)C(=O)N2c1ccc2nccn2c1 [Example 14, (R)-2-Fluoro-N-(1-(1-(imidazo[1,2-a]pyridin-6-yl)-3-methyl-2,4-dioxo-1,3,8-triazaspiro[4.5]decan-8-yl)-3-methyl-1-oxobutan-2-yl)-5-(trifluoromethyl)benzamide trifluoroacetic Acid Salt]	< 500 nM
CC(C)[C@@H](NC(=O)c1cc(C(F)(F)F)ccc1F)C(=O)N1CCC2(CC1)C(=O)N(C)C(=O)N2c1ccc(=O)n(C)c1 [Example 23, (R)-2-Fluoro-N-(3-methyl-1-(3-methyl-1-(1-methyl-6-oxo-1,6-dihydropyridin-3-yl)-2,4-dioxo-1,3,8-triazaspiro[4.5]decan-8-yl)-1-oxobutan-2-yl)-5-(trifluoromethyl)benzamide]	500 to 1000 nM
